Measurements as given in patent publication US12564583B2, “Small molecules against cereblon to enhance effector T cell function” (H. LEE MOFFITT CANCER CENTER AND RESEARCH INSTITUTE, INC., priority 2016, dated 2026).

Tests used:
HL-60 = experiment: Viability of sensitive cell line relative to DMSO; format: cell-based
THP-1 = experiment: Viability of sensitive cell line relative to DMSO; format: cell-based
K562 = experiment: Viability of sensitive cell line relative to DMSO; format: cell-based
[1] = biological target: thalidomide binding domain (TBD) of cereblon (Homo sapiens, UniProt Q96SW2); experiment: Cereblon binding (DSF, FP/FI); conditions: for inhibition at 200 µM: read-out: Cereblon Binding (≥50% inhibition at 200 μM)
Protocol: Several libraries are available for screening inhibitors. Virtual analysis was formulated and then theoretical design of chemical test kit and virtual screen of test kit were carried out. Physical binding studies were also completed for the initial compounds using DSF and FP assays after they are fully tested. TEST KITs that represent the compounds identified from each of the available chemical libraries based on virtual chemical structures were also made.

[2] = Viability of sensitive cell line relative to DMSO; format: cell-based; parameters: concentration or dose not given beside the values; conditions: human, lymphocytes
U-937 = experiment: Viability of sensitive cell line relative to DMSO; format: cell-based
MM1.S = experiment: Viability of sensitive cell line relative to DMSO; format: cell-based, human
Protocol: (§1) For proliferation studies, 1-2×10^4 cells per well were seeded in a 96-well plate and were treated with using cell-counting-8 kit (CCK8) (Dojindo, Rockville, MD) according to manufacturer's protocol.

U266 = experiment: Viability of sensitive cell line relative to DMSO; format: cell-based, human
Protocol: as §1

[3] = test system: Human multiple myeloma cell lines U266, H929, MM1.S, and OPM2; experiment: Growth suppression of multiple myeloma cells; format: cell-based; conditions: for IC50: Homo sapiens, Multiple myeloma cell, read-out: IC50 doses
Protocol: as §1

human T cells [4] = experiment: IL-2 production by stimulated T cells; format: cell-based; conditions: anti-CD3 stimulated, relative to DMSO
mouse T cells [5] = experiment: IL-2 production by stimulated T cells; format: cell-based; conditions: 10 μM, ± anti-CD28
mouse T cells [6] = experiment: Flow cytometry of activated T cells (CD98, viability, division); format: cell-based
human TBD wild type = biological target: T1, human TBD wild type (Homo sapiens, UniProt Q96SW2); experiment: Intrinsic tryptophan fluorescence assay (IF); format: binding
T1 construct: The gene coding for the human TBD (aa 317-425) was synthesized; GST (PreScission site, pGEX-6P-1) (N, cleaved yes); made in house; host or cells: E. coli Rosetta 2(DE3)pLysS
Excerpt: Intrinsic tryptophan fluorescence assay: Binding of compounds to wild-type and mutant TBD was monitored by fluorescence spectroscopy, using an adapted previously published method (14). All chemicals used in this assay were purchased from Sigma-Aldrich unless otherwise stated. In this assay, changes in emission spectra are induced by interactions of these compounds with the three Trp residues (Trp380, Trp386 and Trp400) in the binding site (15, 16). […] A 0.5% final DMSO concentration was used in each well. […] All measurements were done in triplicate and corrected for inner filter effect to subtract for ligand-associated fluorescence, as described (17). […] Graph plotting and curve fitting to obtain apparent dissociation constant (KD) values were calculated by fitting the relative change in intrinsic fluorescence at 340 nm (1-F/F0) versus ligand concentration to a nonlinear regression with one-site binding hyperbola with GraphPad Prism Sofware (GraphPad Software, La Jolla, CA).

c-Myc mRNA = experiment: qRT-PCR of c-Myc in T cells; format: cell-based; conditions: primary mouse T cells, 72 h
Protocol: qRT-PCR: Isolated T cells from Crbn^+/+ and Crbn^−/− mice were lysed, homogenized (Qiashredder, Qiagen), and total RNA extracted (RNeasy, Qiagen) according to manufacturer protocol. Complementary DNA was generated from isolated RNA (iScript cDNA synthesis Kit, Bio-Rad). RNA expression was analyzed by quantitative real time-polymerase chain reaction (qRT-PCR) using Taqman Universal PCR Master Mix for Taqman probes (Thermo Fischer Scientific) against (cDNA) c-Myc (Mm00487804_m1) and (cDNA) β2M (Mm00437762_m1). Samples were run on an Applied Biosystems 7900 HT and Sequence Detection Systems software.

[7] = test system: BRD4 protein and c-Myc expression; experiment: Western blot of BRD4 and c-Myc; format: cell-based, human and mouse
[8] = Viability relative to DMSO; format: cell-based; parameters: concentration or dose not given beside the values
IL-2 = IL-2 relative to DMSO; format: cell-based
human T cells [9] = experiment: Viability and proliferation of activated T cells; format: cell-based

Chain of thalidomide binding domain (TBD) of cereblon (Q96SW2 318-426 limits assumed): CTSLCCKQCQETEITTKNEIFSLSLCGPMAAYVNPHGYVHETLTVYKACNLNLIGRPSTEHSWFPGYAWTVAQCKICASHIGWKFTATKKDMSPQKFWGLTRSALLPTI
T1 sequence (Q96SW2 317-425): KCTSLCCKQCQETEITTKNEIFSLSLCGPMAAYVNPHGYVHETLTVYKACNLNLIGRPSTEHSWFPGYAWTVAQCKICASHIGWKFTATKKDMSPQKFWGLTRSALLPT

For `O=C1CCC(NCCc2ccccn2)C(=O)N1` (stereo not shown), the “Viability (%) (Relative to DMSO)” value (HL-60) was 81.8%, the “Viability (%) (Relative to DMSO)” value (THP-1) was 98.8% and the “Viability (%) (Relative to DMSO)” value (K562) was 80.0%. For the same molecule, the inhibition at 200 µM [1] was greater than 50%, the viability [2] was 91.1% and the “Viability (%) (Relative to DMSO)” value (U-937) was 58.4%. For the same molecule, the “Viability (%) (Relative to DMSO)” value (MM1.S) was 29.9% and the “Viability (%) (Relative to DMSO)” value (U266) was 27.0%.
With `Nc1cccc2c1CN(C1CCC(=O)NC1=O)C2=O` (stereo not shown) [Lenalidomide, lenalidomide] the IC50 [3] was 7 to 16 µM, the “levels of IL2 mRNA and protein” value (human T cells [4]) was “significantly increased” and the “lenalidomide-induced increase in IL-2” value (mouse T cells [5]) was “only human T cells displayed the expected lenalidomide-induced increase in IL-2”.
For `Cc1sc2c(c1C)C(c1ccc(Cl)cc1)=N[C@@H](CC(=O)OC(C)(C)C)c1nnc(C)n1-2` [JQ1], the proliferation (mouse T cells [6]) was “compromised”, the “surface expression of CD98” value (mouse T cells [6]) was “reduction” and the viability (mouse T cells [6]) was “compromised”. The “binding affinity for CRBN-TBD” value (human TBD wild type) was “does not bind”, the “c-Myc mRNA” value (c-Myc mRNA) was “Suppression” and the BRD4 protein level ([7]; activated mouse T cells, not dependent on CRBN) was “slight reduction in protein expression”.
`Nc1cccc2c1CN(C1CCC(=O)NC1=O)C2=O` (stereo not shown) [drawing 123] showed a viability [2] of 99.9%.
In the case of `Cc1sc2c(c1C)C(c1ccc(Cl)cc1)=N[C@@H](CC(=O)NCCCCNC(=O)COc1cccc3c1C(=O)N(C1CCC(=O)NC1=O)C3=O)c1nnc(C)n1-2` (stereo partly shown) [dBET1], the “surface expression of CD98” value (mouse T cells [6]) is reported as “reduces the percentage of cells expressing the c-Myc target CD98”, the viability (mouse T cells [6]) is reported as “suppresses viability” and the “BRD4 protein and c-Myc expression” value ([7]; human T cells, mouse T cells, MM1.S, 5TGM1) is reported as “dramatically suppressed”.
For `CNc1ccccc1C(=O)NCCNC1CC(=O)NC1=O` (stereo not shown), the “Viability (%) (Relative to DMSO)” value (HL-60) was 12.0%, the “Viability (%) (Relative to DMSO)” value (THP-1) was 41.1% and the “Viability (%) (Relative to DMSO)” value (K562) was 21.1%. The “Cereblon Binding (≥50% inhibition at 200 μM)” value [1] was “No”, the viability [2] was 92.6% and the “Viability (%) (Relative to DMSO)” value (U-937) was 6.3%. The “Viability (%) (Relative to DMSO)” value (MM1.S) was 53.6% and the “Viability (%) (Relative to DMSO)” value (U266) was 0.1%.
With `O=C1CCC(N2C(=O)c3ccccc3C2=O)C(=O)N1` (stereo not shown) [Thalidomide, thalidomide] the growth suppression ([3]; doses up to 200 μM) was “no suppressive function”.
With `Cn1c(=O)ccn(CCCCc2ccccc2)c1=O` the “Viability (%) (Relative to DMSO)” value (HL-60) was 39.3%, the “Viability (%) (Relative to DMSO)” value (THP-1) was 32.8% and the “Viability (%) (Relative to DMSO)” value (K562) was 17.7%. The “Cereblon Binding (≥50% inhibition at 200 μM)” value [1] was “No”, the viability [2] was 94.2% and the “Viability (%) (Relative to DMSO)” value (U-937) was 50.5%. For the same molecule, the “Viability (%) (Relative to DMSO)” value (MM1.S) was 43.0% and the “Viability (%) (Relative to DMSO)” value (U266) was 32.7%.
With `CN(Cc1ccccc1)C1CC(=O)NC1=O` (stereo not shown) the “Viability (%) (Relative to DMSO)” value (HL-60) was 10.15%, the “Viability (%) (Relative to DMSO)” value (THP-1) was 32.6% and the “Viability (%) (Relative to DMSO)” value (K562) was 116.7%. For the same molecule, the “Cereblon Binding (≥50% inhibition at 200 μM)” value [1] was “No”, the viability [2] was 96.8% and the “Viability (%) (Relative to DMSO)” value (U-937) was 98.5%. For the same molecule, the “Viability (%) (Relative to DMSO)” value (MM1.S) was 1.1% and the “Viability (%) (Relative to DMSO)” value (U266) was 0%.
With `O=C1CCC(NS(=O)(=O)c2cccc([N+](=O)[O-])c2)C(=O)N1` (stereo not shown) the “Cereblon Binding (≥50% inhibition at 200 μM)” value [1] was “Yes*”, the viability [8] was 80% and the “IL-2 (%) (Relative to DMSO)” value (IL-2) was 143.7%.
For `Nc1cccc2c1C(=O)N(C1CCC(=O)NC1=O)C2=O` (stereo not shown) [Pomalidomide, pomalidomide], the IC50 [3] was 0.05 to 0.61 µM, the proliferation (human T cells [9]) was “increase proliferation” and the relative viability (human T cells [9]; 72 h) was “no effect on viability”.
In the case of `Cc1nc2cccc(N)c2c(=O)n1C1CCC(=O)NC1=O` (stereo not shown), the inhibition at 200 µM [1] is reported as greater than 50%, the viability [8] is reported as 84.4% and the “IL-2 (%) (Relative to DMSO)” value (IL-2) is reported as 283.4%.
In the case of `O=C1CCC(N2CCc3ccc([N+](=O)[O-])cc3C2)C(=O)N1` (stereo not shown), the “Cereblon Binding (≥50% inhibition at 200 μM)” value [1] is reported as “Yes*”, the viability [8] is reported as 84.2% and the “IL-2 (%) (Relative to DMSO)” value (IL-2) is reported as 23.0%.
With `CCNc1cccc(S(=O)(=O)NC2CCC(=O)NC2=O)c1` (stereo not shown) the “Cereblon Binding (≥50% inhibition at 200 μM)” value [1] was “Yes*”, the viability [8] was 100% and the “IL-2 (%) (Relative to DMSO)” value (IL-2) was 124.4%.
In the case of `Cn1cncc1C(=O)NC1CCC(=O)NC1=O` (stereo not shown), the inhibition at 200 µM [1] is reported as greater than 50%, the viability [8] is reported as 95.3% and the “IL-2 (%) (Relative to DMSO)” value (IL-2) is reported as 148.0%.
For `CN(Cc1ccc2c(c1)OCO2)C1CCC(=O)NC1=O` (stereo not shown), the inhibition at 200 µM [1] was greater than 50%, the viability [8] was 106% and the “IL-2 (%) (Relative to DMSO)” value (IL-2) was 43%.
In the case of `O=C1CCC(NS(=O)(=O)c2ccc3c(c2)OCCCO3)C(=O)N1` (stereo not shown), the “Cereblon Binding (≥50% inhibition at 200 μM)” value [1] is reported as “Yes*”, the viability [8] is reported as 73.6% and the “IL-2 (%) (Relative to DMSO)” value (IL-2) is reported as 61.6%.
